# Results as given in article PMC4908180 (American Journal of Human Genetics, 2016).
# Biological target: 6His-tagged human FADS isoform 2 (FADS2), WT (Homo sapiens, UniProt Q8NFF5)
# Test: UV/Vis spectra
# Type: binding
# Settings: reaction product, non-covalent; bound flavin as purified
# Sequence of 6His-tagged human FADS isoform 2 (FADS2), WT (Q8NFF5 98-587): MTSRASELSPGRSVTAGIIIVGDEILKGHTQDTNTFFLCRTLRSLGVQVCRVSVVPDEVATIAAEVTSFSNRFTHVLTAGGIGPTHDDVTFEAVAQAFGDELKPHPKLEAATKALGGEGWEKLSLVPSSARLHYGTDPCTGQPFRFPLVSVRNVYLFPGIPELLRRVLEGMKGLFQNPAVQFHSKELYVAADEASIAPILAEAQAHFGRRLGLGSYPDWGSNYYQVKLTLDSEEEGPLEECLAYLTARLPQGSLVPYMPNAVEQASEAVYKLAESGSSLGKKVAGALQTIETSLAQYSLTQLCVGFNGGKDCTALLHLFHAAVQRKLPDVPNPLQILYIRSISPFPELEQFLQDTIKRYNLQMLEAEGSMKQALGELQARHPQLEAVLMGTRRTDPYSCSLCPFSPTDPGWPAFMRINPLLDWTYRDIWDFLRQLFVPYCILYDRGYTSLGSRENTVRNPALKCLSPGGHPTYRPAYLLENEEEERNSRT
compound,measurement,value
Cc1cc2nc3c(=O)[nH]c(=O)nc-3n(C[C@H](O)[C@H](O)[C@H](O)COP(=O)(O)OP(=O)(O)OC[C@H]3O[C@@H](n4cnc5c(N)ncnc54)[C@H](O)[C@@H]3O)c2cc1C [FAD],UV/Vis spectra (FAD saturation of purified protein),"Spectrophotometric analysis of the purified WT, p.Ser495del, and p.Arg530Cys FADS2 proteins"
